Data from PubChem BioAssay AID1053172 (The Scripps Research Institute Molecular Screening Center, 2014).
pIC50: −log10 of the molar value. The source made the active and inactive calls. How the calls were made is not given here.

Target: HIV-1 integrase / human LEDGF/p75 complex
Experiment: blockers of LEDGF/p75-dependent integrase activity – biochemical, TR-FRET, dose response (AID 1053172)
Conditions: TR-FRET integrase-LEDGF/p75 DNA integration

SMILES: CN(C)C1C(=O)C(C(N)=O)=C(O)C2(O)C(=O)C3=C(O)c4c(O)cccc4C(C)(O)C3C(O)C12 (stereo unspecified)
- IC50: inactive

SMILES: O=C1c2cc(O)c(O)cc2OC(c2ccc(O)c(O)c2)C1O (stereo unspecified)
- pIC50: 5.33

SMILES: C=CC(=O)N1C/C(=C/c2ccc(F)cc2)C(=O)/C(=C\c2ccc(F)cc2)C1
- IC50: inactive

SMILES: CSc1nc(N(CCO)CCO)c2sc3nc(-c4ccco4)c4c(c3c2n1)CCC4
- pIC50: 5.31

SMILES: O=C1C=C(O)c2c(O)cc(O)c(O)c2C1=O
- pIC50: 6.13

SMILES: O=C(O)C(Cc1ccccc1)N1C(=O)/C(=C/C=C/c2ccco2)SC1=S (stereo unspecified)
- pIC50: 5.56

SMILES: O=C(Cc1nnc(NC(=O)c2ccccc2)s1)N/N=C\c1ccc(O)c(O)c1
- pIC50: 5.66

SMILES: COc1ccc2[nH]c3c(C)c4cc[n+](C)cc4c(C)c3c2c1
- pIC50: 5.29

SMILES: O=S(=O)(O)c1cc(Cl)cc(N=Nc2ccc(O)cc2O)c1O
- pIC50: 5.00

SMILES: O=C(O)c1ccc(-n2cccc2/C=C2/SC(=O)N(CC(=O)N3CCCC3)C2=O)cc1
- pIC50: 5.61

SMILES: C[C@@H]1O[C@@H](O[C@@H]2[C@@H](O)[C@H](OCCc3ccc(O)c(O)c3)O[C@H](CO)[C@H]2OC(=O)/C=C/c2ccc(O)c(O)c2)[C@H](O)[C@H](O)[C@H]1O
- pIC50: 5.85

SMILES: COCCN=c1scc(-c2ccco2)n1/N=C/c1ccc(O)c(O)c1O
- pIC50: 5.49

SMILES: Cc1nc2ccccc2c(=O)n1/N=C/c1ccc(O)c(O)c1O
- pIC50: 5.61

SMILES: O=c1c(O)c(-c2ccc(O)c(O)c2)oc2cc(O)ccc12
- pIC50: 6.42

SMILES: C=CC1=C(C(=O)O)N2C(=O)[C@@H](NC(=O)/C(=N/OCC(=O)O)c3csc(N)n3)[C@H]2SC1
- pIC50: 6.54

SMILES: Oc1ccc(C=Nc2cccc3ncccc23)c(O)c1
- IC50: > 36500 nM (inactive)

SMILES: CC(=O)c1ccc(NC(=O)CSc2nnc(-c3ccco3)c(-c3ccco3)n2)cc1
- pIC50: 5.19

SMILES: COc1ccc(N=C2NC(=O)/C(=C\C=C\c3ccco3)S2)cc1
- pIC50: 5.09

SMILES: CC1CCCC(C)N1/N=C/c1ccc(O)c(O)c1 (stereo unspecified)
- pIC50: 5.47

SMILES: O=C(O)c1ccc(-n2cccc2/C=C2/NC(=O)N(c3ccccc3)C2=O)cc1
- pIC50: 5.55

SMILES: Nc1c(C(=O)N/N=C/c2cccnc2)oc2nc(-c3ccco3)cc(-c3ccco3)c12
- IC50: > 36600 nM (inactive)

SMILES: COc1ccc(/C=N/NC(=O)c2cc(O)c(O)c(O)c2)cc1Cn1cc([N+](=O)[O-])cn1
- pIC50: 6.16

SMILES: C=C(C)C(=O)Oc1ccc(N=Nc2ccc(C)cc2)ccc1=O
- pIC50: 5.46

SMILES: CN(C)c1ccc(O)c2c1CC1CC3[C@@H](N(C)C)C(=O)C(C(N)=O)=C(O)[C@]3(O)C(=O)C1=C2O (stereo partly specified)
- pIC50: 5.43

SMILES: O=C(CCN1C(=O)/C(=C/c2ccco2)SC1=S)Nc1ccc(C(=O)O)c(O)c1
- IC50: inactive

SMILES: COc1c(-c2ccc(O)c(O)c2)oc2cc(O)cc(O)c2c1=O
- pIC50: 5.72

SMILES: COc1ccc(C(=O)CSc2nnc(-c3ccco3)c(-c3ccco3)n2)cc1
- pIC50: 5.19

SMILES: Cn1cccc1CC(=O)NN=C/C=C\c1ccco1
- IC50: > 36500 nM (inactive)

SMILES: C[C@@H]1O[C@@H](Oc2c(-c3ccc(O)c(O)c3)oc3cc(O)cc(O)c3c2=O)[C@H](O)[C@H](O)[C@H]1O
- pIC50: 5.58

SMILES: Oc1ccc(/C=N/N=C(c2ccccc2)c2ccccc2)c(O)c1O
- pIC50: 5.97

SMILES: CCOc1ccc(Nc2ccc(N)c(S(=O)(=O)O)c2)cc1
- IC50: inactive

SMILES: Cc1cc(-c2csc(N)n2)c(C)n1Cc1ccco1
- IC50: > 36600 nM (inactive)

SMILES: C=CCn1c(C)cc(C(=O)Cn2ncc(Cl)c(Cl)c2=O)c1C
- IC50: inactive

SMILES: CCOc1cccc(N2C(=O)/C(=C/c3ccco3)C(=O)NC2=S)c1
- pIC50: 5.81

SMILES: O=C(O)c1cc(O)c2c(c1)[C@H]([C@H]1c3cc(C(=O)O)cc(O)c3C(=O)c3c(O[C@@H]4O[C@H](CO)[C@@H](O)[C@H](O)[C@H]4O)cccc31)c1cccc(OC3O[C@H](CO)[C@@H](O)[C@H](O)[C@H]3O)c1C2=O (stereo partly specified)
- pIC50: 5.98

SMILES: Oc1ccc(C[C@H]2NCCc3cc(O)c(O)cc32)cc1O
- pIC50: 5.49

SMILES: Cc1cc2nc3ccc(N(C)C)cc3nc2cc1N
- IC50: > 36600 nM (inactive)

SMILES: Cc1c(O)cc2c(c1O)C(=O)CC(c1ccc(O)cc1)O2 (stereo unspecified)
- pIC50: 5.03

SMILES: O=S(=O)(c1cc(O)ccc1O)c1cccc2c(S(=O)(=O)c3cc(O)ccc3O)cccc12
- IC50: inactive

SMILES: O=C(O)CC(C(=O)O)N1C(=O)/C(=C/C=C/c2ccco2)SC1=S (stereo unspecified)
- pIC50: 6.42

SMILES: O=C(O)c1ccc(NC2=C/C(=N/S(=O)(=O)c3cccs3)c3ccccc3C2=O)cc1
- pIC50: 6.00

SMILES: Nc1ccc2c(c1)C/C(=C/c1ccco1)C2=O
- IC50: > 36600 nM (inactive)

SMILES: O=C(N/N=C/c1ccc(O)cc1O)C(=O)N/N=C/c1ccc(O)cc1O
- pIC50: 6.75

SMILES: NC1=CC(=O)C(=O)c2cccnc21
- pIC50: 5.67

SMILES: CC1OC(OCC2OC(Oc3c(-c4ccc(O)cc4)oc4cc(O)cc(O)c4c3=O)C(O)C(O)C2O)C(O)C(O)C1O (stereo unspecified)
- pIC50: 5.06

SMILES: O=S(=O)(O)c1cc(O)c2cc(Nc3ccccc3)ccc2c1
- pIC50: 5.56

SMILES: O=S(=O)(O)c1cc(O)c(N=Nc2ccc(O)cc2O)c2ccccc12
- IC50: inactive

SMILES: COC(=O)c1cc(O)cc(OC)c1Oc1cc(C)cc(O)c1C(=O)O
- pIC50: 5.59

SMILES: C=CCn1c(SCC(=O)c2ccc(O)c(O)c2)nnc1-c1cccnc1
- pIC50: 5.62

SMILES: NC1=C(Cl)C(=O)c2ccc(S(N)(=O)=O)cc2C1=O
- pIC50: 6.37

SMILES: O=C(COC(=O)c1c2c(nc3ccccc13)/C(=C\c1ccco1)CC2)NC1CCCC1
- pIC50: 5.19
